Consider 1 molecule from US4997817A, “Phyllanthostatin A” (Arizona Board of Reagents, priority 1990, dated 1991).

Values after ≈ are worked out from the molar mass of the structure shown.

Series [1] is described as follows: Stability in solution at room temperature (nmr observation; MeOH solutions stored two days). In kind it is physicochemical.
The test system of series [2] is P388 murine lymphocytic leukemia. Put plainly: Cell growth inhibition against P388 murine lymphocytic leukemia (in vitro PS system), NCI standard protocol. The format is cell-based. The conditions noted are these: Mus musculus, read-out: ED50 (P388 murine lymphocytic leukemia, in vitro PS system).
From the text: Hplc-uv/vis and cell growth inhibition against the P388 murine lymphocytic leukemia (in vitro PS system) were used to guide the isolation of the lignan.
Series [3] can be described thus: Thermal stability in DMSO-d6 (variable temperature 1H nmr). The format is physicochemical. As to conditions: DMSO-d6, higher temperatures (FIGS. 2d,e); signals attributable to justicidin B appeared. The method, then: Signals of the remaining carbons appeared as sharp single lines. These observations are explained by hindered rotation around the C-1/C-1' axis, resulting in conformational isomers. In order to provide evidence for or disprove this hypotheses, the ^1 H nmr spectra of the glycoside (shown above) were recorded in DMSO-d6 at different temperatures. Table 1 summarizes the chemical shifts observed at 25, 65, 105, 135, and 145° C. […] Room temperature (FIG. 2a) led to a complex coupling pattern that became more easily interpretable when the spectrum was recorded at 65° C. (FIG. 2b). Signals due to H-2', H-5' and H-6' broadened and disappeared when the temperature was raised (FIG. 2c). […] Other protons (not shown in FIG. 2) also appeared as single resonances at higher temperatures.

Consider `COc1cc2cc(COC(C)=O)c(C(=O)O[C@@H]3O[C@H](CO)[C@@H](O)[C@H](O)[C@H]3O)c(-c3ccc4c(c3)OCO4)c2cc1OC` [Phyllanthostatin A], for which the “justicidin B detected in stored solution” value in series [1] (MeOH solutions, room temperature, two days) is on record as “Justicidin B was also detected in MeOH solutions of glycoside stored at room temperature for two days”. For the same molecule, the stability in solution result in series [1] (in solution) is on record as “unstable in solution”. For the same molecule, the IC50 in series [2] is 4 µg/mL (≈ 6.82 µM). Also, the “decomposition at higher temperatures” value in series [3] is reported as “gradually decomposed”.
